Laboratory results taken from patent US9101638B2, “Boronic acid derivatives and therapeutic uses thereof” (Rempex Pharmaceuticals, Inc., priority 2013, dated 2015).
Counter-ions that a name gives are not always drawn.

Tests used:
Thrombin = molecular target: T1, Thrombin (Homo sapiens, UniProt P00734); experiment: Serine protease inhibition: thrombin; type: biochemical, mammalian
T1 construct: Thrombin; MPBio; 19491880; purchased MPBio 19491880
Description: (§1) The effect of selected BLIs on the enzymatic activity of some common mammalian serine proteases was evaluated.
(§2) 50 μl of the diluted enzyme was mixed with 50 μl of inhibitor at various concentrations and 50 μl of corresponding buffer (Table 7). Reaction mixtures were incubated for 10 min at 37° C. Subsequently, 50 μl of corresponding substrate (Table 7) was added and absorbance or fluorescence was monitored for 30 min on SpectraMax M2 plate reader (Molecular Devices). 4-(2-Aminoethyl)benzenesulfonyl fluoride hydrochloride (AEBSF) and leupeptin were used as positive controls. Rates of reaction were calculated and presented relative to “no treatment” control.

Neutrophil elastase = molecular target: T2, Neutrophil elastase (Homo sapiens, UniProt P08246); experiment: Serine protease inhibition: neutrophil elastase; type: biochemical, mammalian
T2 construct: purchased Calbiochem 324681
T2 sequence (P08246 30-267): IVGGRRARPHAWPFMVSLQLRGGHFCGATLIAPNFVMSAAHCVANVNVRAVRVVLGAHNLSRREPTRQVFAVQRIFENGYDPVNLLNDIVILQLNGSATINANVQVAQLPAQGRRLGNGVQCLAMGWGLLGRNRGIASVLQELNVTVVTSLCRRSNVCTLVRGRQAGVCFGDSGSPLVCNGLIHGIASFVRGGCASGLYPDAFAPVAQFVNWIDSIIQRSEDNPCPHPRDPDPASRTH
Description: as §1, §2

Chymase = molecular target: T3, Chymase (Homo sapiens, UniProt P23946); experiment: Serine protease inhibition: chymase; type: biochemical, mammalian
T3 construct: purchased Enzo Lifescience BML-SE281
T3 sequence (P23946 22-247): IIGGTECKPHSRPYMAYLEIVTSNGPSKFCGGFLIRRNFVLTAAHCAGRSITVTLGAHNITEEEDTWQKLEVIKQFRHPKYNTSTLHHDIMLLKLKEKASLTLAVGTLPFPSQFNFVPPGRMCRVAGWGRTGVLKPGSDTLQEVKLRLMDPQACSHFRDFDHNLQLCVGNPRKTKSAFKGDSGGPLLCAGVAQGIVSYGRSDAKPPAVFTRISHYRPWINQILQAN
Description: as §1, §2

Urokinase = molecular target: T4, Urokinase (Homo sapiens, UniProt P00749); experiment: Serine protease inhibition: urokinase; type: biochemical, mammalian
T4 construct: purchased Calbiochem 672112
Description: as §1, §2

CTX-M-14 = CTX-M-14 (Escherichia coli, UniProt Q9L5C7); experiment: Inhibition of nitrocefin cleavage by purified CTX-M-14; type: biochemical; conditions: nitrocefin reporter substrate, purified enzyme; read-out: Ki (CTX-M-14, NCF)
Description: (§3) Purified enzymes were mixed with various concentrations of inhibitors in reaction buffer and incubated for 10 min at room temperature. Nitrocefin was added and substrate cleavage profiles were recorded at 490 nm every 10 sec for 10 min.

CathepsinG = molecular target: T5, CathepsinG (Homo sapiens, UniProt P08311); experiment: Serine protease inhibition: cathepsin G; type: biochemical, mammalian; conditions: Table 8B
T5 construct: purchased EMD Millipore 219373
T5 sequence (P08311 21-244): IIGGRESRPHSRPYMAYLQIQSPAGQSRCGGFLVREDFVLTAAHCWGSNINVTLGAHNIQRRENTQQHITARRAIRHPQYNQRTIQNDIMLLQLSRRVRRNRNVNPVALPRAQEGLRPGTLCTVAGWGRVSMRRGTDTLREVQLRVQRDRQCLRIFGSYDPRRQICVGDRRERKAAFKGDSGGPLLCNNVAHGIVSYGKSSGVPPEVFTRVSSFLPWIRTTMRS
Description: as §1, §2

PAM1154/KPC-2 = experiment: Biapenem potentiation in PAM1154/KPC-2 (MexAB-OprM lacking); type: cell-based, Pseudomonas aeruginosa
Description: (§4) Efflux of BLIs from Pseudomonas aeruginosa by the MexAB-OprM efflux pump was also evaluated. […] Due to expression of KPC-2 both strains became resistant to biapenem. […] Potency of BLIs to potentiate biapenem in these strains was determined. […] The ratio of MPC64 values for each BLI in PAM1032/KPC-2 (efflux proficient) and PAM1154/KPC-2 (efflux deficient) was determined to generate the Efflux Index (EI).

ec302 (TEM-10) [1] = experiment: Potentiation of aztreonam, strain ec302; type: cell-based
EC1010 (CMY-6) [2] = type: cell-based
ec308 (SHV-5) [3] = experiment: Potentiation of aztreonam, strain ec308; type: cell-based; conditions: minimum BLI concentration inhibiting growth with 4 μg/mL aztreonam
KP1009 (CTX-M-15) [4] = experiment: Potentiation of tigemonam, strain KP1009; conditions: minimum BLI concentration inhibiting growth with 4 μg/mL tigemonam
CathepsinA = molecular target: T6, CathepsinA (Homo sapiens, UniProt P10619); experiment: Serine protease inhibition: cathepsin A; type: biochemical, mammalian; conditions: Table 8B; read-out: IC50 CathepsinA
T6 construct: purchased R&D Systems 1049-SE
T6 sequence (P10619 29-480): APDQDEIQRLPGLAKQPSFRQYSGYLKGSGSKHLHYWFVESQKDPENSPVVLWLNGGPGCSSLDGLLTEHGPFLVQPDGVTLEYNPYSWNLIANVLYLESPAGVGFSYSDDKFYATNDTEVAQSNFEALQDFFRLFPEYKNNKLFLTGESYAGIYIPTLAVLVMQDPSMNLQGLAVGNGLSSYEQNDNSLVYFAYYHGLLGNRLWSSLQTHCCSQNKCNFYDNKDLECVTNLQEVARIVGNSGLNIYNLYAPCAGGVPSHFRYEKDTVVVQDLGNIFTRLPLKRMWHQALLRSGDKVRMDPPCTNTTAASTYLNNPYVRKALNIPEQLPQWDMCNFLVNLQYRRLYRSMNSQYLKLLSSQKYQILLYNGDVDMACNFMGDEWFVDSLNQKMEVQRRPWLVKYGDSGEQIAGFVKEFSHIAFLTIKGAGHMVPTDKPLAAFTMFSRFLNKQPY
Description: as §1, §2

ec302 (TEM-10) [5] = experiment: Potentiation of tigemonam, strain ec302; type: cell-based
KP1009 (CTX-M-15) [6] = experiment: Potentiation of aztreonam, strain KP1009; type: cell-based
SHV-12 = SHV-12 (Klebsiella pneumoniae, UniProt P0AD64, E235K/G234S/L31Q); experiment: Inhibition of nitrocefin cleavage by purified SHV-12; type: biochemical; conditions: nitrocefin reporter substrate, purified enzyme; read-out: Ki (SHV-12, NCF)
Description: as §3

KP1005 (CTX-M-14) = experiment: Potentiation of aztreonam, strain KP1005; type: cell-based
P99 = P99 (Enterobacter cloacae, UniProt P05364); experiment: Inhibition of nitrocefin cleavage by purified P99; type: biochemical; conditions: nitrocefin reporter substrate, purified enzyme; read-out: Ki (P99, NCF)
Description: as §3

PAM1032/KPC-2 = experiment: Biapenem potentiation in PAM1032/KPC-2 (MexAB-OprM overexpressed); type: cell-based, Pseudomonas aeruginosa; conditions: BLI potency to decrease biapenem MIC 64-fold, 32 to 0.5 μg/ml; efflux proficient strain
Description: as §4

ec308 (SHV-5) [7] = experiment: Potentiation of tigemonam, strain ec308; type: cell-based; conditions: minimum BLI concentration inhibiting growth with 4 μg/mL tigemonam
KP1004 (K-2) = experiment: Potentiation of aztreonam, strain KP1004; type: cell-based; conditions: minimum BLI concentration inhibiting growth with 4 μg/mL aztreonam
ECL1002 = experiment: Potentiation of aztreonam, strain ECL1002; type: cell-based; conditions: minimum BLI concentration inhibiting growth with 4 μg/mL aztreonam
EC1010 (CMY-6) [8] = experiment: Potentiation of aztreonam, strain EC1010; type: cell-based
OXA-48 = OXA-48 (Klebsiella pneumoniae, UniProt Q6XEC0); experiment: Inhibition of nitrocefin cleavage by purified OXA-48; type: biochemical; conditions: nitrocefin reporter substrate, purified enzyme; read-out: Ki (OXA-48, NCF)
Description: as §3

Sequence of OXA-48 (Q6XEC0 23-265 limits assumed): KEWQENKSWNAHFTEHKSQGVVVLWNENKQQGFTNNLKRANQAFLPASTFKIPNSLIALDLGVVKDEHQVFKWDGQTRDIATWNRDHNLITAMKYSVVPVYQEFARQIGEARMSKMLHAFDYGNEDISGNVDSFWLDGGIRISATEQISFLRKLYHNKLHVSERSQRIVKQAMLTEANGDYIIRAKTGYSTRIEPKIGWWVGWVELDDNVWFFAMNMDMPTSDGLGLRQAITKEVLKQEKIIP
Sequence of P99 (P05364 21-381): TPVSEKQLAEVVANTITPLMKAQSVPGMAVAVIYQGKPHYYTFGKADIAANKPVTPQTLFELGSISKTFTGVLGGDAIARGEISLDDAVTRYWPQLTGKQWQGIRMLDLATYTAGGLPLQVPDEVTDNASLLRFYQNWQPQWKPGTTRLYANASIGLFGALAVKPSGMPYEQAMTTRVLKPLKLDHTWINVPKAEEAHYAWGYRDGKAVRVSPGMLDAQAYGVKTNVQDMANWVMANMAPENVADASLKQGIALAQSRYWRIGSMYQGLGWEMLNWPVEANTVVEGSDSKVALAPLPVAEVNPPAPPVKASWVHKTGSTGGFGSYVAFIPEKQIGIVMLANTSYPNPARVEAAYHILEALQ
Sequence of CTX-M-14 (Q9L5C7 entry or part of it): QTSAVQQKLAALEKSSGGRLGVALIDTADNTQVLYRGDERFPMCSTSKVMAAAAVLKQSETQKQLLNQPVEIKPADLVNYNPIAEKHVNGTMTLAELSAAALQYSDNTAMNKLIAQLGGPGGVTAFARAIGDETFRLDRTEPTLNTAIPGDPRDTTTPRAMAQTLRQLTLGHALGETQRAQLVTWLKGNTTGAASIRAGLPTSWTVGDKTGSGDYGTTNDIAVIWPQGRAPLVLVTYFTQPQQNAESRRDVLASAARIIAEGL
Sequence of SHV-12 (P0AD64 22-286 L31Q/G234S/E235K): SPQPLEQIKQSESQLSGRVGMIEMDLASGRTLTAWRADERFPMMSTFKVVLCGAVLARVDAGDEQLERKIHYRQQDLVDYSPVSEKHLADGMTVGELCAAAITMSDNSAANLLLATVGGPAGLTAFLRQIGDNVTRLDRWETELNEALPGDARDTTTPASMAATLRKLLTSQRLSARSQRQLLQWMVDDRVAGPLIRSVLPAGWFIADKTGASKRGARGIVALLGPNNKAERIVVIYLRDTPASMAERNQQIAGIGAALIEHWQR

NCCc1ccc(S(=O)(=O)F)cc1 [AEBSF, 4-(2-Aminoethyl)benzenesulfonyl fluoride hydrochloride, reference compound]
IC50 (Thrombin): 100 µM
IC50 (Neutrophil elastase): > 500 µM
IC50 (Chymase): 375 µM
IC50 (Urokinase): 8.2 µM

O=C(N[C@H]1Cc2cccc(C(=O)O)c2OB1O)c1cccnc1 [Compound 12, (R)-2-hydroxy-3-(nicotinamido)-3,4-dihydro-2H-benzo[e][1,2]oxaborinine-8-carboxylic acid]
Ki (CTX-M-14): < 0.001 µM
IC50 (CathepsinG): < 15 µM
PAM1154/KPC-2 Biapenem MPC64 (PAM1154/KPC-2): X (key: X = Less than 10; Y = 10 to 40; Z Greater than 40)
AZT MPC4 TEM-10 ec302 (ec302 (TEM-10) [1]): X (key: X = MIC of less than 1 μg/mL; Y = MIC of 1 μg/mL to 10 μg/mL; Z = MIC of greater than 10 μg/mL)
TIG MPC4 CMY-6 EC1010 (EC1010 (CMY-6) [2]): Y (key: X = MIC of less than 1 μg/mL; Y = MIC of 1 μg/mL to 10 μg/mL; Z = MIC of greater than 10 μg/mL)
AZT MPC4 SHV-5 ec308 (ec308 (SHV-5) [3]): Y (Y = MIC of 1 μg/mL to 10 μg/mL)
TIG MPC4 CTX-M-15 KP1009 (KP1009 (CTX-M-15) [4]): Y (Y = MIC of 1 μg/mL to 10 μg/mL)
IC50 (CathepsinA): 15 to 500 µM
TIG MPC4 TEM-10 ec302 (ec302 (TEM-10) [5]): Y (key: X = MIC of less than 1 μg/mL; Y = MIC of 1 μg/mL to 10 μg/mL; Z = MIC of greater than 10 μg/mL)
AZT MPC4 CTX-M-15 KP1009 (KP1009 (CTX-M-15) [6]): Y (key: X = MIC of less than 1 μg/mL; Y = MIC of 1 μg/mL to 10 μg/mL; Z = MIC of greater than 10 μg/mL)
Ki (SHV-12): < 0.001 µM
AZT MPC4 CTX-M-14 KP1005 (KP1005 (CTX-M-14)): Y (key: X = MIC of less than 1 μg/mL; Y = MIC of 1 μg/mL to 10 μg/mL; Z = MIC of greater than 10 μg/mL)
Ki (P99): < 0.001 µM
PAM1032/KPC-2 Biapenem MPC64 (PAM1032/KPC-2): Z (Z Greater than 40)
TIG MPC4 SHV-5 ec308 (ec308 (SHV-5) [7]): Y (Y = MIC of 1 μg/mL to 10 μg/mL)
AZT MPC4 K-2 KP1004 (KP1004 (K-2)): Y (Y = MIC of 1 μg/mL to 10 μg/mL)
AZT MPC4 ECL1002 (ECL1002): X (X = MIC of less than 1 μg/mL)
AZT MPC4 CMY-6 EC1010 (EC1010 (CMY-6) [8]): Y (key: X = MIC of less than 1 μg/mL; Y = MIC of 1 μg/mL to 10 μg/mL; Z = MIC of greater than 10 μg/mL)
Ki (OXA-48): < 0.001 µM
